According to patent US20260183350A1, “ANTIBIOTIC-RESISTANT BACTERIA” (priority 2022, published 2026):

Legend:
faecal microbiota = test: Faecal batch culture with antibiotics promoting CRE colonisation: 1H-NMR of nutrients and metabolites; format: cell-based, human; settings: 11 healthy donors, antibiotic at faecal concentration, 24 hours anaerobic
Method: The inventors performed faecal culture experiments to measure the effects of eight broad-spectrum antibiotics on the faecal microbiota collected from 11 healthy human donors. Faecal culture experiments were performed under anaerobic conditions using a complex gut growth medium that was designed to mimic the nutrients found in the human distal gut (McDonald, J. A. et al. Evaluation of microbial community reproducibility, stability and composition in a human distal gut chemostat model. J. Microbiol. Methods 95, 167-174 (2013)). […] Moon, Y. S., Chung, K. C. & Gill, M. A. Pharmacokinetics of meropenem in animals, healthy volunteers, and patients. Clin Infect Dis 24, S249-S255 (1997). Kager, L., Brismar, B., Malmborg, A. S. & Nord, C. E. Imipenem concentrations in colorectal surgery and impact on the colonic microflora. Antimicrob Agents Chemother 33, 204-8 (1989). Pletz, M. et al. Ertapenem pharmacokinetics and impact on intestinal microflora, in comparison to those of ceftriaxone, after multiple dosing in male and female volunteers. Antimicrob Agents Chemother 48, 3765-72 (2004). Nord, C. E., Brismar, B., Kasholm-Tengve, B. & Tunevall, G. Effect of piperacillin/tazobactam treatment on human bowel microflora. J Antimicrob Chemother 31, 61-5 (1993). […] Antimicrob Agents Chemother 63, 2244 (2019). Pessôa de Menezes e Silva, C H. Elaboration and evaluation of a new screening medium for detection and presumptive identification of extended-spectrum beta-lactamase-producing organisms (ESBL). Braz J Microbiol 31, 271-274 (2000). Brismar, B., Edlund, C., Malmborg, A. S. & Nord, C. […] Antimicrob Agents Chemother 34, 481-3 (1990)). Cultures were incubated anaerobically at 37° C. for 24 hours. Samples were analysed by ^1H-NMR spectroscopy (for nutrient and metabolite profiling) and […] rRNA gene sequencing with 16S rRNA gene qPCR (for bacterial composition and biomass) (McDonald, J. A. K. et a/. Inhibiting Growth of Clostridioides difficile by Restoring Valerate, Produced by the Intestinal Microbiota. Gastroenterology 155, 1495-1507 (2018)).
Supernatants were prepared from faeces by vortexing 300 mg of faeces in 900 μl of HPLC-grade water for 10 minutes at 3000 rpm followed by centrifugation at 17,000×g for 10 minutes at 4° C. Supernatants were prepared from faecal culture samples by centrifugation at 17,000×g for 10 minutes at 4° C. Supernatants were frozen at −80° C. until they were ready for analysis.
^1H-NMR spectroscopy was performed as previously described (McDonald, J. A. K. et al. Inhibiting Growth of Clostridioides difficile by Restoring Valerate, Produced by the Intestinal Microbiota. Gastroenterology 155, 1495-1507 (2018)). Briefly, sample supernatants were randomized and defrosted at room temperature for 1 hour. Sample supernatants were then centrifuged for 10 min at 17 000×g and 4° C. The pellet was discarded and 400 μl of supernatant was added to 250 μl NMR buffer (28.85 g Na2HPO4, 5.25 g NaH2PO4, 1 mM TSP, 3 mM NaN3, deuterium oxide to 1 L, pH 7.4). 600 μl of sample was used to fill each 5 mm NMR tube to be loaded into the SampleJet system.
^1H-NMR spectroscopy was performed using the Bruker AVANCE III HD 800 MHz spectrometer (Bruker Bio-Spin, Rheinstetten, Germany). 1D spectra (a standard NOESYGPPR1D pulse sequence (RD-90°-t1-90°-tm-90°-ACQ)) as well as 2D spectra (standard 2D JRESGPPRQF pulse sequence) were acquired. A recycle delay of 4 seconds and mixing time of 100 ms was used. The 90° pulse length was approximately 10 μs and 32 scans were recorded.
NMR spectra were imported into MATLAB r2019b (The Mathworks, USA) using an in-house script. Spectra were aligned and the water (4.6-5 ppm) and TSP (−0.2-0.2 ppm) peaks were cut. Compounds were identified by comparison to spectral databases in Chenomx NMR Suite (Chenomx, Canada). Representative peaks were integrated for quantification of compounds.

[1] = system: NDM-1 Enterobacter cloacae; test: Carbon utilisation assay; format: cell-based; settings: anaerobic; M9 minimal medium, 0.5% (w/v) carbon source
Method: (§1) New Delhi Metallo-β-lactamase 1 (NDM-1) Escherichia coli, NDM-1 Klebsiella pneumoniae, and NDM-1 Enterobacter cloacae were isolated from patients with intestinal CRE colonisation from the Imperial College Healthcare NHS Trust via rectal swab (REC ref. 19/LO/0112). The species were assigned by matrix assisted laser desorption ionization-time of flight (MALDI-TOF) mass spectrometry and later confirmed with 16S rRNA gene sequencing. CRE status was determined using X-pert Carba-R PCR detection (Cepheid, Sunnyvale, CA, USA), (Otter, J. A. et al. Detecting carbapenemase-producing Enterobacterales (CPE): an evaluation of an enhanced CPE infection control and screening programme in acute care. J Antimicrob Chemother 75, 2670-2676 (2020)).
(§2) Growth of CRE isolates on sole carbon or nitrogen sources was tested by inoculating each CRE isolate into a minimal medium supplemented with the nutrient of interest. First, CRE isolates were passaged from frozen glycerol stocks on Reasoner's 2A agar (R2A) plates. Cells were then suspended in M9 minimal media to a turbidity of 42% using a Turbidimeter (Biolog Inc.), then diluted a further 1 in 6 to inoculate the carbon or nitrogen utilisation assays. M9 minimal media contained the following (at final concentrations): 22 mM KH2PO4, 42 mM Na2HPO4, 9 mM NaCl, 0.49 mM MgSO4·7H2O, 0.09 mM CaCl2), 0.011 mM FeSO4·7H2O. For the carbon assays the M9 minimal medium was also supplemented with 0.1% (w/v) NH4Cl (as the nitrogen source) and the carbon sources were individually tested at 0.5% (w/v) concentration. For the nitrogen assays the M9 minimal medium was also supplemented with 0.5% (w/v) glucose (as the carbon source) and the nitrogen sources were individually tested at 0.1% (w/v) concentration. Cultures were incubated anaerobically and aerobically in a plate reader and OD600 readings were collected every 15 minutes for 24 hours.
(§3) Growth curves were analysed in Python (v3.6.5) using the AMiGA software (Midani, F. S., Collins, J. & Britton, R. A. AMiGA: Software for Automated Analysis of Microbial Growth Assays. mSystems 6, e0050821 (2021)). Growth of each isolate was measured with 6 wells from 2-3 independent experiments. Growth curves were normalised to the no substrate control using the subtraction method. AMiGA performed Gaussian Process regression to test differential growth between the substrate and the no substrate control. The functional difference in the OD (and its credible interval) was also computed between the substrate and the no substrate control.

NDM-1 Escherichia coli [2] = test: Carbon utilisation assay; format: cell-based; settings: M9 minimal medium, 0.5% (w/v) carbon source
Method: as §1, §2, §3

[3] = system: NDM-1 Klebsiella pneumoniae; test: Carbon utilisation assay; format: cell-based; settings: anaerobic; M9 minimal medium, 0.5% (w/v) carbon source
Method: as §1, §2, §3

[4] = system: vancomycin-resistant E. faecalis; test: VRE nutrient utilization protocol: carbon sources; format: cell-based, Enterococcus faecalis; settings: aerobic; VRE minimal medium
Method: (§4) VRE minimal media consists of potassium phosphate monobasic (4 g/L), potassium phosphate dibasic (14 g/L), sodium citrate (1 g/L), magnesium sulphate (0.2 g/L), ammonium sulphate (2 g/L), adenosine (0.04 g/L), thymine (0.04 g/L), Kao and Michayluk vitamin solution [Sigma, K3129, 50× Stock](5×), glucose (1 g/L) and amino acid solution [Sigma, R7131, RPMI-1640, 50×](25×). If the study was performed under anaerobic conditions, fumarate (5.2 g/L) was added to increase growth of VRE strains. Carbon-free minimal media was prepared by leaving out glucose while nitrogen-free minimal media was prepared without the amino acid solution. Media was filter sterilized with a 0.22 micron filter and used immediately aerobically or degassed overnight if used anaerobically.
(§5) VRE strains were grown on R2A overnight before the cells were suspended in 0.9% saline to an OD of 0.38 (λ=595 nm). A 10% dilution of the cell suspension was prepared using VRE minimal media to achieve a final well OD of […] (λ=595 nm) greater than the sterile media OD. Both carbon and nitrogen source utilization were evaluated by adding the inoculated media and a filter-sterilised nutrient source solution into a well in a 1:1 ration to a final volume of 100 μL in aerobic tests and 200 μL in anaerobic tests. Carbon sources were tested individually and compared to a carbon-free control. To test nitrogen source utilization, a nitrogen source solution was prepared containing L-alanine (2 g/L), L-arginine (2.5 g/L, L-asparagine (0.71 g/L), L-aspartate (0.25 g/L), L-cysteine (0.625 g/L), L-glutamate (0.25 g/L), L-Glycine (0.125 g/L), L-histidine (0.1875 g/L), L-isoleucine (0.625 g/L), L-leucine (0.625 g/L), L-lysine HCl (0.5 g/L), L-methionine (0.1875 g/L), L-phenylalanine (0.1875 g/L), L-proline (0.25 g/L), L-serine (0.375 g/L), L-threonine (0.25 g/L), L-tryptophan (0.0625 g/L), L-tyrosine (0.29 g/L), L-valine (0.25 g/L), N-acetylglucosamine (2 g/L), and uracil (2.5 g/L). To test the strains' ability to utilize individual nitrogen sources, separate solutions were prepared eliminating one nitrogen source each. The change in growth compared to the complete nitrogen source solution control was used to determine nitrogen utilization. All carbon and nitrogen sources were tested in a technical triplicate for each biological replicate. Aerobic plates were incubated with a plate seal while anaerobic plates were not. The aerobic plate reader was set to read the plate (λ=595 nm, 37° C., 22 flashes per well, orbital shaking of 100 rpm for 15 s prior to each read) every 15 minutes for 24 hours. The anaerobic plate reader read the plate (λ=595 nm, 37° C., stationary) every 15 minutes for 24 hours.

[5] = system: vancomycin-resistant E. faecium; test: VRE nutrient utilization protocol: carbon sources; format: cell-based, Enterococcus faecium; settings: aerobic; VRE minimal medium
Method: as §4, §5

NDM-1 Escherichia coli [6] = test: Nutrient preference assay (nutrient mixture); format: cell-based; settings: aerobic; M9 with […] of each nutrient, up to 24 hours
Method: as §1
CRE isolates were passaged once from frozen glycerol stocks on R2A plates. Cells were suspended in M9 minimal media to a turbidity of 42% using a Turbidimeter (Biolog Inc.), then diluted 1 in 6 to inoculate the nutrient preference assays. M9 minimal media was supplemented with 0.015% of each of the following: L-arabinose, D-fructose, L-fucose, D-galactose, D-glucose, D-mannose, D-ribose, D-xylose, N-acetylglucosamine, D-maltose, sucrose, D-trehalose, L-alanine, L-arginine, L-aspartate, L-glutamate, L-glycine, L-isoleucine, L-leucine, L-lysine, L-methionine, L-phenylalanine, L-proline, L-threonine, L-tryptophan, L-tyrosine, L-valine, uracil, and succinate. Cultures were incubated anaerobically and aerobically in a plate reader and OD600 readings were collected every 15 minutes for 24 hours. Cultures were also incubated anaerobically and aerobically for 24 h and samples were collected at 0, 4, 8, and 24 hours post-inoculation for 1H-NMR spectroscopy. Changes in nutrients and metabolites by CRE isolates was compared to the sterile media control over time using a two-way mixed ANOVA followed by pairwise comparisons with Bonferroni correction. […]

Row | Compound | Change in butyrate concentration in faecal cultures (faecal microbiota) | Use as sole carbon source to support E. cloacae growth [1] | Use as sole carbon source to support E. coli growth (NDM-1 Escherichia coli [2]; anaerobic) | Use as sole carbon source to support K. pneumoniae growth [3] | Use as sole carbon source to support E. faecalis growth [4] | Use as sole carbon source to support E. faecium growth [5] | Use as sole carbon source to support E. coli growth (NDM-1 Escherichia coli [2]; aerobic) | Utilisation of nutrient by E. coli from nutrient mixture (1H-NMR) (NDM-1 Escherichia coli [6])
1 | C[C@@H](O)[C@H]1C(=O)N2C(C(=O)O)=C(S[C@@H]3CN[C@H](C(=O)Nc4cccc(C(=O)O)c4)C3)[C@H](C)[C@H]12 [ETP, ertapenem] | decreased |  |  |  |  |  |  | 
2 | C[C@@H](O)[C@H]1C(=O)N2C(C(=O)O)=C(S[C@@H]3CN[C@H](C(=O)N(C)C)C3)[C@H](C)[C@H]12 [MEM, meropenem] | increased |  |  |  |  |  |  | 
3 | O=C(CO)[C@@H](O)[C@H](O)[C@H](O)CO [fructose, D-fructose] |  | could use | could use | could use | could use | could use |  | 
4 | O=C[C@H](O)[C@@H](O)[C@@H](O)[C@H](O)CO [galactose, D-galactose] |  | could use | could use | could use | could use | could use |  | 
5 | OC[C@H]1O[C@H](O[C@H]2[C@H](O)[C@@H](O)[C@H](O)O[C@@H]2CO)[C@H](O)[C@@H](O)[C@@H]1O [maltose, D-maltose] |  | could use |  | could use | could use | could use | able to grow | 
6 | OC[C@H]1O[C@@](CO)(O[C@H]2O[C@H](CO)[C@@H](O)[C@H](O)[C@H]2O)[C@@H](O)[C@@H]1O [sucrose] |  | could use |  | could use | could use |  | able to grow | moderate utilisation
7 | imipenem/cilastatin [IPM] | increased |  |  |  |  |  |  | 
